No end group written: not given here.
Legend:
[1] = tested on: CYP1A1, TNF-a, IL-6, IL-1b, COX-2 mRNA; experiment: RT-PCR of CYP1A1 and inflammatory molecules induced by TCDD; assay type: cell-based, human; details: HaCaT cells; 10 nM TCDD; 50 μM peptide; 6 hours or 24 hours
Protocol: (§1) HaCaT cells, human keratinocyte cells, were seeded on a 6-well plate at a density of 3×10^5 cells/well and cultured overnight. Subsequently, 10 nM of TCDD and 50 μM of the peptide consisting of an amino acid sequence of SEQ ID NO: 1, 2, or 3 were added to the culture medium. After 30 minutes of reaction, the cells were treated for 6 hours or 24 hours and collected to separate RNA therefrom. After quantifying RNA, cDNA was synthesized using a cDNA synthesis kit (Intron, Korea). Then, polymerase chain reaction (PCR) was performed using a PCR PreMix kit (Intron, Korea) and a primer for each of CYP1A1, TNF-a, IL-6, IL-1 b, and COX-2 shown in Table 4. Then, by running the resultant on a 5% agarose gel, the expression levels of mRNA of the growth factors were compared under the conditions of treating the respective samples, and the results are shown in FIGS. 5A to 5C.

[2] = tested on: CYP1A1, TNF-a, IL-6, IL-1b, COX-2 mRNA; experiment: RT-PCR of CYP1A1 and inflammatory molecules induced by particulate matter; assay type: cell-based, human; details: HaCaT cells; 10 nM particulate matter; 50 μM peptide; 6 hours or 24 hours
Protocol: as §1, with “particulate matter (PM)” for “TCDD”, “PCR” for “polymerase chain reaction (PCR)”, “IL-1b,” for “IL-1 b,”, “5.” for “4.”, “7A” for “5A”, “7C.” for “5C.”

| Substance | effect on expressions of CYP1A1 and inflammatory factors induced by TCDD (in words) [1] | effect on expressions of CYP1A1 and inflammatory factors induced by particulate matter (in words) [2] |
| --- | --- | --- |
| DVENTS [SEQ ID NO: 3, DVENTS] | inhibiting expressions of CYP1A1 and various inflammatory factors induced by TCDD | inhibiting expressions of CYP1 A1 and various inflammatory factors induced by particulate matter |
| ILGRWCG [SEQ ID NO: 2, ILGRWCG] | inhibiting expressions of CYP1A1 and various inflammatory factors induced by TCDD | inhibiting expressions of CYP1 A1 and various inflammatory factors induced by particulate matter |
| KWGGGRY [SEQ ID NO: 1, KWGGGRY] | inhibiting expressions of CYP1A1 and various inflammatory factors induced by TCDD | inhibiting expressions of CYP1 A1 and various inflammatory factors induced by particulate matter |

From US11597748B2, “Peptide having cytoprotective effect against environmental pollutant and use thereof” (CAREGEN CO., LTD., priority 2017, dated 2023)
